According to patent publication US9120787B2, “HIV replication inhibitors” (priority 2011, dated 2015):

Tests used:
[1] = tested on: HIV-1Ba-L; experiment: Inhibition of virus replication in MAGI-CCR5 cells (β-galactosidase reporter); assay type: cell-based; conditions: HIV-1Ba-L in MAGI-CCR5 cells; for IC50: Human immunodeficiency virus 1, 48 hours, β-galactosidase reporter expression, read-out: IC50
Procedure: (§1) The anti-viral activity of dihydropyrimidines was shown by inhibition of virus replication in MAGI-CCR5 cells. MAGI-CCR5 cells are derived from HeLa-CD4-LTR-β-galactosidase cells. The cells have been engineered to express high levels of CD4 and CCR5 and contain one copy of the HIV-1 LTR promoter driving expression of the β-galactosidase gene upon HIV-1 Tat transactivation. On the day preceding the assay, the cells were plated at 1.0×10^4 cells per well and maintained at 37° C. and 5% CO2 in a humidified incubator. Total cell count and viability was visually assessed using a hemacytometer and trypan blue exclusion.
Compounds were evaluated at six concentrations (triplicate wells/concentration). On the day of assay setup, compound dilutions were prepared at two-times (2×) the final concentrations. Media was decanted and wells were replenished with 50 μl of 2× compounds, followed by the addition of 50 μl of diluted virus. Identical uninfected assays were prepared for parallel cytotoxicity testing.
Evaluation of Dihydropyrimidines vs. HIV-1Ba-L in MAGI-CCR5 Cells

[2] = Cytotoxicity by MTS staining in uninfected MAGI-CCR5 cells; assay type: cell-based; conditions: human, read-out: TC50
Procedure: as §1, with “exclusion. Compounds were evaluated at six concentrations (triplicate wells/concentration). On the day of assay setup, compound dilutions were prepared at two-times (2×) the final concentrations. Media was decanted and wells were replenished with 50 μl of 2× compounds, followed by the addition of 50 μl of diluted virus. Identical uninfected assays were prepared for parallel cytotoxicity testing.” for “exclusion.”

Compound | TI (TC50/IC50) [1] | IC50 [1] [µM] | CC50 at 48 h [2] [µM]
CC1=C(c2nc(-c3ccc(C#N)cc3)cs2)C(c2cccnc2Cl)NC(=O)N1 (stereo not drawn) [Example 4] | C (C < 50.0 to 10.0) | 1 to 5 | ≥ 100
CC1=C(c2nc(-c3ccc(C#N)cc3)cs2)C(c2cc3ccccc3nc2Cl)NC(=O)N1 (stereo not drawn) [Example 5] | D (D < 10.0) | 5 to 100 | ≥ 100
CC1=C(c2nc(-c3ccc(C#N)cc3)cs2)C(c2ccc3ccccc3n2)NC(=O)N1 (stereo not drawn) [Example 6] | C (C < 50.0 to 10.0) | 1 to 5 | ≥ 100
CC1=C(c2nc(-c3ccc(C#N)cc3)cs2)C(c2ccccn2)NC(=O)N1 (stereo not drawn) [Example 7] | C (C < 50.0 to 10.0) | 1 to 5 | ≥ 100
CC1=C(c2nc(-c3ccc(C#N)cc3)cs2)C(c2cccnc2)NC(=O)N1 (stereo not drawn) [Example 8] | C (C < 50.0 to 10.0) | 1 to 5 | ≥ 100
CC1=C(c2nc(-c3ccc(C#N)cc3)cs2)C(c2ccncc2)NC(=O)N1 (stereo not drawn) [Example 9] | C (C < 50.0 to 10.0) | 1 to 5 | ≥ 100
CC1=C(c2nc(-c3ccc(C#N)cc3)cs2)C(c2cc3ccccc3s2)NC(=O)N1 (stereo not drawn) [Example 12] | C (C < 50.0 to 10.0) | 1 to 5 | ≥ 100
CC1=C(c2nc(-c3ccc(C#N)cc3)cs2)C(c2cc(Br)cs2)NC(=O)N1 (stereo not drawn) [Example 13] | D (D < 10.0) | 5 to 100 | ≥ 100
CC1=C(c2nc(-c3ccc(C#N)cc3)cs2)C(c2cccs2)NC(=O)N1 (stereo not drawn) [Example 14] | C (C < 50.0 to 10.0) | 5 to 100 | ≥ 100
CC1=C(c2nc(-c3ccc(C#N)cc3)cs2)C(c2nccn2C)NC(=O)N1 (stereo not drawn) [Example 16] | D (D < 10.0) | > 100 | ≥ 100
CC1=C(c2nc(-c3ccc(C#N)cc3)cs2)C(c2cncc(F)c2)NC(=O)N1 (stereo not drawn) [Example 20] | A (A = TI (TC50/IC50) ≧ 100.0) | < 1 | ≥ 100
CC1=C(c2nc(-c3ccc(C#N)cc3)cs2)C(c2cc(=O)[nH]c(=O)[nH]2)NC(=O)N1 (stereo not drawn) [Example 22] | D (D < 10.0) | > 100 | ≥ 100
CC1=C(c2nc(-c3ccc(C#N)cc3)cs2)C(c2ccnc(Cl)c2)NC(=O)N1 (stereo not drawn) [Example 24] | C (C < 50.0 to 10.0) | 5 to 100 | ≥ 100
COc1ncccc1C1NC(=O)NC(C)=C1c1nc(-c2ccc(C#N)cc2)cs1 (stereo not drawn) [Example 27] | C (C < 50.0 to 10.0) | 5 to 100 | ≥ 100
COc1ncc(C2NC(=O)NC(C)=C2c2nc(-c3ccc(C#N)cc3)cs2)cn1 (stereo not drawn) [Example 31] | C (C < 50.0 to 10.0) | 1 to 5 | ≥ 100
COc1ncc(C2NC(=O)NC(C)=C2c2nc(-c3ccc(C#N)cc3)cs2)c(OC)n1 (stereo not drawn) [Example 32] | D (D < 10.0) | 5 to 100 | ≥ 100
CC1=C(c2nc(-c3cccs3)cs2)C(c2cccc(O)c2)NC(=O)N1 (stereo not drawn) [Example 37] | D (D < 10.0) | 5 to 100 | ≥ 100
COc1ccc(-c2csc(C3=C(C)NC(=O)NC3c3ccccc3)n2)cc1 (stereo not drawn) [Example 39] | D (D < 10.0) | 5 to 100 | ≥ 100
